Experimental data taken from patent US20030109418A1, “Methods for identifying compounds for inhibition of neoplastic lesions, and pharmaceutical compositions containing such compounds” (priority 1999, published 2003).
Where a name gives a salt, the structure may show the parent alone.

Experiments:
HT-29 cells = experiment: Apoptosis and necrosis by morphology (acridine orange and ethidium bromide); assay type: cell-based, human; conditions: HT-29 treated for six days
Description: Apoptosis occurs naturally during normal tissue turnover and during embryonic development of organs and limbs. Apoptosis also is induced by cytotoxic T-lymphocytes and natural killer cells, by ionizing radiation and by certain chemotherapeutic drugs. Inappropriate regulation of apoptosis is thought to play an important role in many pathological conditions including cancer, AIDS, or Alzheimer's disease, etc. Compounds can be screened for induction of apoptosis using cultures of tumor cells maintained under conditions as described above. Treatment of cells with test compounds involves either pre- or post-confluent cultures and treatment for two to seven days at various concentrations. Apoptotic cells are measured in both the attached and “floating” compartments of the cultures. Both compartments are collected by removing the supernatant, trypsinizing the attached cells, and combining both preparations following a centrifugation wash step (10 minutes, 2000 rpm). The protocol for treating tumor cell cultures with sulindac and related compounds to obtain a significant amount of apoptosis has been described in the literature. (See, Piazza, G. A., et al., Cancer Research, 55:3110-16, 1995, which is incorporated herein by reference). The novel features include collecting both floating and attached cells, identification of the optimal treatment times and dose range for observing apoptosis, and identification of optimal cell culture conditions.
Following treatment with a compound, cultures can be assayed for apoptosis and necrosis by florescent microscopy following labeling with acridine orange and ethidium bromide. The method for measuring apoptotic cell number has previously been described by Duke & Cohen, “Morphological And Biochemical Assays Of Apoptosis,” Current Protocols In Immunology, Coligan et al., eds., 3.17.1-3.17.16 (1992, which is incorporated herein by reference).
For example, floating and attached cells can be collected by trypsinization and washed three times in PBS. Aliquots of cells can be centrifuged. The pellet can then be re-suspended in media and a dye mixture containing acridine orange and ethidium bromide prepared in PBS and mixed gently. The mixture can then be placed on a microscope slide and examined for morphological features of apoptosis.
Reference compounds and test compounds were analyzed for their novel PDE inhibitory activity in accordance with the protocols for the assay, supra. […] Apoptotic and necrotic cell death was determined previously (Duke and Cohen, In: Current Protocols in Immunology, 3.17.1-3.17.16, New York, John Wiley and Sons, 1992). […] All data were collected from the same experiment.
The apoptosis inducing activity for a series of phosphodiesterase inhibitors was determined. HT-29 cell were treated for 6 days with various inhibitors of phosphodiesterase. Apoptosis and necrosis were determined morphologically after acridine orange and ethidium bromide labeling in accordance with the assay described, supra.

[1] = tested on: NRK, Kidney (non ras-transformed); experiment: Growth inhibition, SRB assay, NRK; assay type: cell-based
[2] = tested on: KNRK, Kidney (ras transformed); experiment: Growth inhibition, SRB assay, KNRK; assay type: cell-based
[3] = tested on: PKG activity in HCT116 colon cancer cells; experiment: PKG assay of lysates of drug-treated HCT116 cells; assay type: cell-based
Description: To test the effect of cGMP-specific PDE inhibition on neoplasia containing the β-catenin mutation, HCT116 colon cancer cells were employed. HCT116 is known to contain the β-catenin mutation, but is known not to contain the APC mutation.
The same procedure is used to grow the HCT116 cells as is used in the SW480 procedure described above. In this experiment, only exisulind and controls were used.

[4] = target: T1, cGMP binding sites of the GST-cGB-PDE5 protein (Homo sapiens, UniProt O76074); experiment: cGMP binding assay with GST-cGB-PDE5 fusion protein; conditions: 3H-cGMP 2 μM
T1 construct: made in house; host or cells: E. coli BL21 (DE3)

[5] = Single, escalating dose human safety study; assay type: in vivo; conditions: single escalating oral doses
[6] = tested on: aberrant crypt foci (ACF) in colon; experiment: Azoxymethane-induced aberrant crypt foci model; assay type: in vivo, rat; conditions: for Mean ACF/colon (+ SE): free base, 5 weeks
Method: The growth inhibition IC50 value obtained for Compound I was 0.7 μM in the SW-480 cell line. […] This established rodent model of azoxymethane (“AOM”)-induced carcinogenesis was used to assess the effects of Compound I (free base and salt) on colon cancer development in vivo. ACF are precursors to colonic tumors, and ACF inhibition is predictive of chemo-preventive efficacy.
In the rats in this experiment, ACF initiation was achieved by two consecutive weekly injections of the carcinogen. Compound I was administered one week prior to ACF initiation and for the duration of the experiment. ACFs were scored after 5 weeks of treatment. Compound I was administered orally to male Fisher 344 rats in the rat chow. Daily food consumption (mg/kg body weight) varied over the course of the study, and therefore Compound I dose was expressed a grams per kg of diet to provide a basis of comparison between doses. […] The experimental groups gained less weight than the controls, which was indicative of bioavailability. However, the weight differences were less than 10% and not considered to affect ACF formation.
The free base of Compound I inhibited ACF formation as measured by a reduction of crypts per colon. With the exception of the low dose group (only 0.5 g/kg diet), the differences between treatment and control groups were substantial, and statistically significant in the case of the 1.0 and 2.0 g/kg diet group.

K-562 = experiment: Growth inhibition, neutral red assay, K-562; assay type: cell-based; conditions: Homo sapiens, K562; HCl salt
Method: (§1) Compound I's activity is not confined to activity against colon cancer cell lines or animal models of colon cancer. It has a broad range of anti-neoplastic effects in various neoplastic cell lines. Various types of human cancer cell lines were propagated under sterile conditions in RPMI 1640 medium with 10% fetal bovine serum, 2 mM L-glutamine and sodium bicarbonate. To determine growth inhibitory effects of Compound I, cells were seeded in 96-well plates at a density of 1000 cells per well. Twenty-four hours after plating, the cells were dosed with various concentrations of the free base of Compound I solubilized in DMSO (final concentration 0.1%). The effect of the drug on tumor cell growth was determined using the neutral red cytotoxicity assay following five days of continuous treatment. Neutral red is a dye that is selectively taken up by viable cells by an ATP-dependent transport mechanism.

OVCAR = experiment: Growth inhibition, neutral red assay, OVCAR; assay type: cell-based; conditions: Homo sapiens; HCl salt
Method: as §1

PANC-1 = experiment: Growth inhibition, neutral red assay, PANC-1; assay type: cell-based; conditions: Homo sapiens, HCl salt
Method: as §1

[7] = tested on: panel of cultured human cell lines derived from various tissue origins; experiment: Growth inhibition, neutral red assay, whole panel; assay type: cell-based; conditions: all cell lines of the panel, read-out: GI50 value calculated for all cell lines
Method: as §1

T1 sequence (O76074 46-539 limits assumed): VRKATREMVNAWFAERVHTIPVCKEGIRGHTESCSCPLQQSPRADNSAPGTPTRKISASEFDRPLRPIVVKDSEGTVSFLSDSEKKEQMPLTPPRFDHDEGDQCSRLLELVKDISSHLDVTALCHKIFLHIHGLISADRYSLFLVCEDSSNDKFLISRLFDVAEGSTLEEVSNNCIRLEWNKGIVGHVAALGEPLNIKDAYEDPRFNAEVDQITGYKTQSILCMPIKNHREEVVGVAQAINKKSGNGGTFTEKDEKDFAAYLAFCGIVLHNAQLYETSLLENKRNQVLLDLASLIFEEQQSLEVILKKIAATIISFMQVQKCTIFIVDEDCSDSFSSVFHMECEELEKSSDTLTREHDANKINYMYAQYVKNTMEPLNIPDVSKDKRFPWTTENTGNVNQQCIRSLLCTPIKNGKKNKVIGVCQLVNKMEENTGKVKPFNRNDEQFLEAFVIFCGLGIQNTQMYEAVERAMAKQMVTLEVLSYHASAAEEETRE

| SMILES | apoptotic and necrotic cell death (HT-29 cells) | IC50 [1] | IC50 [2] | PKG activation relative to controls [3] | competition with cGMP in binding of GST-cGB-PDE5 [4] | side effects in humans [5] | ACF % Control ([6]; 0.5 g/kg diet) | Mean ACF/colon (+ SE) ([6]; 0.5 g/kg diet) | ACF % Control ([6]; 1 g/kg diet) | Mean ACF/colon (+ SE) ([6]; 1 g/kg diet) | ACF % Control ([6]; 1.5 g/kg diet) | Mean ACF/colon (+ SE) ([6]; 1.5 g/kg diet) | ACF % Control ([6]; 2.0 g/kg diet) | Mean ACF/colon (+ SE) ([6]; 2.0 g/kg diet) | body weight differences versus controls ([6]; male Fisher 344 rats, drug in chow) | GI50 (K-562) | GI50 (OVCAR) | GI50 (PANC-1) | GI50 [7] |
| --- | --- | --- | --- | --- | --- | --- | --- | --- | --- | --- | --- | --- | --- | --- | --- | --- | --- | --- | --- |
| CC1=C(CC(=O)O)c2cc(F)ccc2/C1=C\c1ccc(S(C)(=O)=O)cc1 [Exisulind, 5-fluoro-2-methyl-1-(p-methylsulfonylbenzylidene)-3-indenylacetic acid] | capable of causing apoptotic cell death without inducing necrosis | 180 µM | 240 µM | yielded PKG that was phosphorylated to a greater extent than the corresponding controls | do not bind to the cGMP binding sites of PDE5 | – | – | – | – | – | – | – | – | – | – | – | – | – | – |
| CC1=C(CC(=O)NCc2ccccc2)c2cc(F)ccc2/C1=C\c1ccncc1 [Compound I, (Z)-5-fluoro-2-methyl-(4-pyridylidene)-3-(N-benzyl)indenylacetamide hydrochloride] | – | – | – | – | – | no significant side effects at any dose | 100% | 149 ± 14 | 75% | 111 ± 9 | 89% | 132 ± 4 | 72% | 107 ± 15 | less than 10% | 1.8 µM | 1.2 µM | 2.2 µM | 1000 to 2000 nM |
